Holding throughout (test): KinomeScan profiling
Holding throughout (format): binding

For one assay, the target named is ERK2 (Homo sapiens, UniProt P28482). The settings on record: ERK2, 1 μM; read-out: % control. In outline:
(§1)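 Percent-of-control values derive from RLU, calculated as (test − positive)/(negative − positive) × 100, where DMSO defines 100% and a positive control compound defines 0%. Each compound was tested at 1 μM in the 468-kinase panel; sub-35% readings indicate activity.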

The target of a further assay is ERN1 (Homo sapiens, UniProt O75460). The settings on record: ERN1, 1 μM; read-out: % control. In outline:
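The panel spans 468 kinases, and each inventive compound was applied at 1 μM from DMSO. Lower % control means stronger binding; the activity cut-off is set at less than 35%.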

Another assay addresses FES (Homo sapiens, UniProt P07332). The settings on record: read-out: % control. The essentials: as §1
The target of a further assay is HIPK2 (Homo sapiens, UniProt Q9H2X6). Conditions: HIPK2, 1 μM; read-out: % control. The essentials: as §1
Sequence of HIPK2 (Q9H2X6 whole entry): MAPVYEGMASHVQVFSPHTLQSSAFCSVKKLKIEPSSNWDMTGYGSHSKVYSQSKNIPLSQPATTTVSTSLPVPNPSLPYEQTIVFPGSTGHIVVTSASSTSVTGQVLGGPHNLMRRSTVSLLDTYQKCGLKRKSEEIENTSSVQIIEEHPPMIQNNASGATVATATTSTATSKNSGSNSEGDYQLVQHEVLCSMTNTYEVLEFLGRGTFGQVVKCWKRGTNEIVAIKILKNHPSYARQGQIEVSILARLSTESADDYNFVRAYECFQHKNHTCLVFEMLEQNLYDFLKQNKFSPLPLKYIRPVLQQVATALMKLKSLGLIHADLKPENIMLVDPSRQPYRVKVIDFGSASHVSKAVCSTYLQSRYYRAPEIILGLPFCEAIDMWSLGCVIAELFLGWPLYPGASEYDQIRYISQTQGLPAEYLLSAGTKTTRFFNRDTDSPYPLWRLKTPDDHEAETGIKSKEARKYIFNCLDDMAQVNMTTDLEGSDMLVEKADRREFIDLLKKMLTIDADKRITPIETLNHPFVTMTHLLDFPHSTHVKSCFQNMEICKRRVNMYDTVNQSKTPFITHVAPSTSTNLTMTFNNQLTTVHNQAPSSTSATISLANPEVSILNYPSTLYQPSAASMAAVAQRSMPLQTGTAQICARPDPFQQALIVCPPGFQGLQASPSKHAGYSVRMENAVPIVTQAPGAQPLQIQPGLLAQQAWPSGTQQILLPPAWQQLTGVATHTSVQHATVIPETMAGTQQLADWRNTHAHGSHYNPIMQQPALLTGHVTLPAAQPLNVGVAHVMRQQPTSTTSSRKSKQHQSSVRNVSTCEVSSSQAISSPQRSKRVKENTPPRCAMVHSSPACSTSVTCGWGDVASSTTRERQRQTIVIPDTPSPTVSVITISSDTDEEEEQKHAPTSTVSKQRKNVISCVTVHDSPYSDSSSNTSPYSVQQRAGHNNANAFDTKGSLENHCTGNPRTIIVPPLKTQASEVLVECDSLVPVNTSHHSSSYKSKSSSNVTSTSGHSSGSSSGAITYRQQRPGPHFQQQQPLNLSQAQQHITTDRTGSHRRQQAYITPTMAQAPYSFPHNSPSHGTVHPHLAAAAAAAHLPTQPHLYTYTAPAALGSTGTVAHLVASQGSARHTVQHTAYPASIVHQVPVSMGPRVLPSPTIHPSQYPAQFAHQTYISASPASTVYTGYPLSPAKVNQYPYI
The target of the next assay is T1, IKK-beta (Homo sapiens, UniProt O14920).
T1 construct: purchased KinomeScan®
T1 sequence (O14920 1-756): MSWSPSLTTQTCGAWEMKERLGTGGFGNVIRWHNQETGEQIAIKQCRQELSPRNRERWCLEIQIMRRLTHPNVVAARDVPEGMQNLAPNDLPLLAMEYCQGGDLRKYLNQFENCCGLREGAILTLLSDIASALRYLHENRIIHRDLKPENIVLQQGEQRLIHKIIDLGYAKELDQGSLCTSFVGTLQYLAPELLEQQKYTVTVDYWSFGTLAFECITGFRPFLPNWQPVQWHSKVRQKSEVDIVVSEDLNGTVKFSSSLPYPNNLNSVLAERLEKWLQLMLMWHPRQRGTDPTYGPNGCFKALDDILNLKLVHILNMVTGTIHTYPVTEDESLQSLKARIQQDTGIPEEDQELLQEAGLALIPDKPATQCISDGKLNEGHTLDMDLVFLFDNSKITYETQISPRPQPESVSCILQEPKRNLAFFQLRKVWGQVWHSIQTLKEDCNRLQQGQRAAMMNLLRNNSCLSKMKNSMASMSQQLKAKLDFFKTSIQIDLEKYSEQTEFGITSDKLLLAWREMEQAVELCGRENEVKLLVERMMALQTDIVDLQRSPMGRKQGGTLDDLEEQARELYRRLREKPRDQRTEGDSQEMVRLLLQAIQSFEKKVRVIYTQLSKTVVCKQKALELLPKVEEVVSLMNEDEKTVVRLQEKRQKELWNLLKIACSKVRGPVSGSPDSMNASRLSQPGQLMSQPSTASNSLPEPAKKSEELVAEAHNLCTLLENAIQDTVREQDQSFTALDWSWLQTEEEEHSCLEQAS
Conditions: read-out: % control. In outline:
as §1

The target of the next assay is T2, KIT-autoinhibited (Homo sapiens, UniProt P10721).
T2 construct: purchased KinomeScan®
T2 sequence (P10721 544-976 limits assumed): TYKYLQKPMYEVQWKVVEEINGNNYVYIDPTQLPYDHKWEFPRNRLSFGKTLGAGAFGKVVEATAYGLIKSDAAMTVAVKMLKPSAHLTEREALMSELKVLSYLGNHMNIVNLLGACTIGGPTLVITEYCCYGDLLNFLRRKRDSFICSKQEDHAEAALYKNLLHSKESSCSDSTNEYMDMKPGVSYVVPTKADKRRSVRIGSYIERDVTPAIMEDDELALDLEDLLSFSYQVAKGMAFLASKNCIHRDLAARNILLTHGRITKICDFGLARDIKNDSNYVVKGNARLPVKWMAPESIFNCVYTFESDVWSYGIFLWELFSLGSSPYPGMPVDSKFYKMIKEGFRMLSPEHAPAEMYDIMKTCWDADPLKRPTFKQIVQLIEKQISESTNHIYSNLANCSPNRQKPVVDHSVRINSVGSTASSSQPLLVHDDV
The settings on record: read-out: % control. The essentials:
as §1

In another assay the target is T3, MAP3K2 (Homo sapiens, UniProt Q9Y2U5).
T3 sequence (Q9Y2U5 1-619): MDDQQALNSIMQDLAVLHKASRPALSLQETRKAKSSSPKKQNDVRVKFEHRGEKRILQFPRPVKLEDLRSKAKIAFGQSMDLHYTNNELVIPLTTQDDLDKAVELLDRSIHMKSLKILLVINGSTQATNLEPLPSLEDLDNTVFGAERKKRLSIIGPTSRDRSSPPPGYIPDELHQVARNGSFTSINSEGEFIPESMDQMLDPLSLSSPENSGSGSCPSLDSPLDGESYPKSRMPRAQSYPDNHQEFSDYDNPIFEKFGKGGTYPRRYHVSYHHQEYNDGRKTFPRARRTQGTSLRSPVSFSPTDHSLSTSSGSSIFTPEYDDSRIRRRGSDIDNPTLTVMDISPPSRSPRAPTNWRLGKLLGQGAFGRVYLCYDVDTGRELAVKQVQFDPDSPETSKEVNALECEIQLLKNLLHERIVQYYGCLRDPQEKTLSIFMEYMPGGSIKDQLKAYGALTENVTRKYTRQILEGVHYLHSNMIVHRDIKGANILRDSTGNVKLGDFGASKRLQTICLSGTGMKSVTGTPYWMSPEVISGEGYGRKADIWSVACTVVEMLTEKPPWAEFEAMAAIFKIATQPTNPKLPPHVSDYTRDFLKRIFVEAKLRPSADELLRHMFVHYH
The settings on record: MAP3K2, 1 μM; read-out: % control. In outline:
as §1

Another assay has as its target T4, PIK4CB (Homo sapiens, UniProt Q9UBF8).
T4 construct: purchased KinomeScan® (panel service)
Conditions: read-out: % control. In outline: as §1

For a further assay, the target named is T5, TNNI3K (Homo sapiens, UniProt Q59H18).
T5 sequence (Q59H18 1-835): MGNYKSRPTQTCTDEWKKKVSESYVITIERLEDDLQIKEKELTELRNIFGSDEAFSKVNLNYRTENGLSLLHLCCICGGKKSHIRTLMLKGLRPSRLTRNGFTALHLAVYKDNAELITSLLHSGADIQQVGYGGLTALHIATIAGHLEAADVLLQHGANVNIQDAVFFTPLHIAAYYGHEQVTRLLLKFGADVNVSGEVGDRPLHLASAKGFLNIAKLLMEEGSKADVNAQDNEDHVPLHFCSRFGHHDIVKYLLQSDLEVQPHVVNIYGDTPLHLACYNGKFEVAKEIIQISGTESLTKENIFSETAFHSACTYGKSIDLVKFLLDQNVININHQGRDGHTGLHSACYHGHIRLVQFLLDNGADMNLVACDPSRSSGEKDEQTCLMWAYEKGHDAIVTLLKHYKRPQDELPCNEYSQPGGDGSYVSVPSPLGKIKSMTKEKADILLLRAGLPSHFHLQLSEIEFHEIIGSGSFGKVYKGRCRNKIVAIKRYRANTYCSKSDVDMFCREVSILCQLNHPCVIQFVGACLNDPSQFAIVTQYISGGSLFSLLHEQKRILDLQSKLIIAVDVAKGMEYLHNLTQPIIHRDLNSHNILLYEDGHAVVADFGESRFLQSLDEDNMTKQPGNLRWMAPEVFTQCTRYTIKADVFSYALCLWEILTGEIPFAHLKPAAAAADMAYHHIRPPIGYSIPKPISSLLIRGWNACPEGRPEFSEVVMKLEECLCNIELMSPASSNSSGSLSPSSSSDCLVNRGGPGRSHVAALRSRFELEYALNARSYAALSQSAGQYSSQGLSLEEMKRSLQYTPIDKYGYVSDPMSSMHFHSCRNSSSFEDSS
The settings on record: read-out: % control. In outline: as §1

Another assay addresses YES (Homo sapiens, UniProt P07947). Conditions: read-out: % control. In outline: as §1

Sequence of ERN1 (O75460 19-977): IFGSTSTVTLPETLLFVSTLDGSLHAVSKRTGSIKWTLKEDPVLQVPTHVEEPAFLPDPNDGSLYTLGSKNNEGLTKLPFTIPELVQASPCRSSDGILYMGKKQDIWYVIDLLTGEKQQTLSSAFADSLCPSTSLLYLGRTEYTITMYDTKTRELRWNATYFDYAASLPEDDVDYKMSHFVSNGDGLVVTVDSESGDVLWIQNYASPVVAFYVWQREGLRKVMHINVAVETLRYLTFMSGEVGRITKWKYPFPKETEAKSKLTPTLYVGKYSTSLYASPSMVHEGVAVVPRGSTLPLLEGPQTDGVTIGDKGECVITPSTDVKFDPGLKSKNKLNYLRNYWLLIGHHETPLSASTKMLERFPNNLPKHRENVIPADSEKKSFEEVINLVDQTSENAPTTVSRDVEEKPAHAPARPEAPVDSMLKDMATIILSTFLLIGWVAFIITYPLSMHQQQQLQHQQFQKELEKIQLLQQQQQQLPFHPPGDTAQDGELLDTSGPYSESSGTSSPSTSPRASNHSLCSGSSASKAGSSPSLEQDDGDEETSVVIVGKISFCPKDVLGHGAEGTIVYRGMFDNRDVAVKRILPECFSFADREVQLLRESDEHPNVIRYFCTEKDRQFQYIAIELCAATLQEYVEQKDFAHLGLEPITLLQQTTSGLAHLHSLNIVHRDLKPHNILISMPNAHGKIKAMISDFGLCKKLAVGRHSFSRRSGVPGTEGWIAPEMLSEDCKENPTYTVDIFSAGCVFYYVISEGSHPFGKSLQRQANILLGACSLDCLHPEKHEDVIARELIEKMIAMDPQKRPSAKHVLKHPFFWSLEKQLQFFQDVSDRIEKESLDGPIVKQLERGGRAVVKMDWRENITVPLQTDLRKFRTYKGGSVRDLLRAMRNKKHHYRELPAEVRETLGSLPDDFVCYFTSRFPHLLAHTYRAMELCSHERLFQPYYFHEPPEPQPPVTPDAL
Sequence of YES (P07947 whole entry): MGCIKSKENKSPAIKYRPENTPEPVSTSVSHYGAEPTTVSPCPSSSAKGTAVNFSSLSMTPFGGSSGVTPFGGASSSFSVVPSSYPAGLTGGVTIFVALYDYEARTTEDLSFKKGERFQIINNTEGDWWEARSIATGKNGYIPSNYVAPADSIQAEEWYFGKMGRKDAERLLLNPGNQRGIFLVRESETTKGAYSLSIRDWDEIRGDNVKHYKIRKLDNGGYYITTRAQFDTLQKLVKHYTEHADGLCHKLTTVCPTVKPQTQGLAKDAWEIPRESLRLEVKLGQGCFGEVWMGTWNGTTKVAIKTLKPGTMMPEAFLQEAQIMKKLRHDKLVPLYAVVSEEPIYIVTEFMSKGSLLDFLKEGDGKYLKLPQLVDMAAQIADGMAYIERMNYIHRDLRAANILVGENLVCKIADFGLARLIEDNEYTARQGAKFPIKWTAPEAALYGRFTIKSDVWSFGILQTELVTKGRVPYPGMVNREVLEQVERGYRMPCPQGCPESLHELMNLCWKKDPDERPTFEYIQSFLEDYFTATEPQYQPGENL
Sequence of ERK2 (P28482 whole entry): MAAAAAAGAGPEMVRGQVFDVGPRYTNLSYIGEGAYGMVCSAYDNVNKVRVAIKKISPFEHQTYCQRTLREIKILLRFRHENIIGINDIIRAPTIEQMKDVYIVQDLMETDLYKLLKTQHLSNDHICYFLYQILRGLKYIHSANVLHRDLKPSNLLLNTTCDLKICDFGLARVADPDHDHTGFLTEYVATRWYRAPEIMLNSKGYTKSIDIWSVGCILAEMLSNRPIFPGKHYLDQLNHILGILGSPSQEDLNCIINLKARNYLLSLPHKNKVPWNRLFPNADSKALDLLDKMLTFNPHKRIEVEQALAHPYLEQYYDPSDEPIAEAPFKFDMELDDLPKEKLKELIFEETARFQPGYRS
T4 sequence (Q9UBF8 whole entry): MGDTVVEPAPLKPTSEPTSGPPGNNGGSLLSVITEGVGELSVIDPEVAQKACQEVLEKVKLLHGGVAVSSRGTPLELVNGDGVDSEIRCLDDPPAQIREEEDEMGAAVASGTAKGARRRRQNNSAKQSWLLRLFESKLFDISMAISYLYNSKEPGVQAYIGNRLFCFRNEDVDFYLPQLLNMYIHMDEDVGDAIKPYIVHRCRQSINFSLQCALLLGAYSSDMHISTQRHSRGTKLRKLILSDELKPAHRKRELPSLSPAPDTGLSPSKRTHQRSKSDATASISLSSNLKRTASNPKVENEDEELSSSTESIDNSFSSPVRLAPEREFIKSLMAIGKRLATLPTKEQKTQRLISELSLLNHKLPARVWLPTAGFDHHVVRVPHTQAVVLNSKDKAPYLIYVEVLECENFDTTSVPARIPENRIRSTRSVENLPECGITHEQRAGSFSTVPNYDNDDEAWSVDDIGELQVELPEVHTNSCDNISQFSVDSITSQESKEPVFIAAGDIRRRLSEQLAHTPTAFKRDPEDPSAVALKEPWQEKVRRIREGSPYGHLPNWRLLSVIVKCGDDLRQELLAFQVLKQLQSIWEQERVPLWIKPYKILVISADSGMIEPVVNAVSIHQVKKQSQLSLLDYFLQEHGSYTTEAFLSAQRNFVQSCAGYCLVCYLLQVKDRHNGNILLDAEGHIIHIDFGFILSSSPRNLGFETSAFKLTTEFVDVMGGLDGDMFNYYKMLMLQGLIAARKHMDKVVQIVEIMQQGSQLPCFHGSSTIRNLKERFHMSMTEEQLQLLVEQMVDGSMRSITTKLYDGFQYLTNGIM

With `CNc1c(-c2cnn([C@H]3CCN(C(C)=O)C[C@@H]3F)c2)cnc2[nH]cc(Cl)c12` [Compound 77, 1-((3S,4S)-4-(4-(3-chloro-4-(methylamino)-1H-pyrrolo[2,3-b]pyridin-5-yl)-1H-pyrazol-1-yl)-3-fluoropiperidin-1-yl)ethan-1-one], the remaining binding at 1 µM is 91% at ERK2; 56% on ERN1; 95% at FES; 81% on HIPK2; 28% at IKK-beta; 23% at KIT-autoinhibited. Besides, the remaining binding at 1 µM at MAP3K2 was determined as 25%; at PIK4CB, 59%; on TNNI3K, 65%; on YES it was 100%.
Regarding `CNc1c(-c2ccc(C(=O)N3CCC(N4CCOCC4)CC3)cc2)cnc2[nH]cc(Cl)c12` [Compound 96, (4-(3-chloro-4-(methylamino)-1H-pyrrolo[2,3-b]pyridin-5-yl)phenyl)(4-morpholinopiperidin-1-yl)methanone], the remaining binding at 1 µM on ERK2 turned out to be 95%; at ERN1, 73%; at FES, 95%; on HIPK2, 74%; at IKK-beta, 32%; at KIT-autoinhibited, 64%. Moreover, the remaining binding at 1 µM at MAP3K2 was 29%; on PIK4CB it was 58%; on TNNI3K, 74%; at YES, 100%.
As for `O=C(c1ccc(-c2cnc3[nH]cc(Cl)c3c2NC2CCCC2)cc1)N1CCC(N2CCOCC2)CC1` [Compound 101, (4-(3-chloro-4-(cyclopentylamino)-1H-pyrrolo[2,3-b]pyridin-5-yl)phenyl)(4-morpholinopiperidin-1-yl)methanone], the remaining binding at 1 µM was 93% on ERK2; 86% at ERN1; 72% at FES; 100% on HIPK2; 93% on IKK-beta; 100% at KIT-autoinhibited. Besides, the remaining binding at 1 µM at MAP3K2 is 35%; on PIK4CB it was 100%; on TNNI3K, 100%; at YES, 100%.
